# Tested on: NOD mice
# Assay: Diabetes-free survival of NOD mice (Kaplan-Meier analysis, log-rank test)
# Format: in vivo
# Conditions: two i.p. treatments, 2 weeks between doses, 50 μg per mouse
# Excerpt: With continued reference to FIG. 1, as another non-limiting example, administration 116 of composition of the engineered virus-based nanoparticle for a treatment of an autoimmune disease may be done to nonobese diabetic (NOD) mice. In another non-limiting example, administration 116 of composition of the engineered virus-based nanoparticle for a treatment of an autoimmune disease may be done to any animal disclosed in this disclosure, such as but not limited to a human. Four-week-old female NOD mice may be obtained from Charles River Laboratories and may be housed under specific pathogen-free conditions in the animal facility at the University of Perugia, with ad libitum access to water and food. NOD mice may be randomly subdivided into four groups. In group 1 (n=18), CPMV·p524opt [50 μg per mouse, resuspended in 100 μl of phosphate-buffered saline (PBS)] may be injected twice intraperitoneally, with 2 weeks between doses. […] Mice may be monitored for the appearance of clinical signs of diabetes and may be euthanized when the disease was confirmed by glucosuria. […]
# With continued reference to FIG. 1, in some embodiments, processor 104 may determine critical administration 124 as a function of a statistical comparison between administration groups 132. […] As a non-limiting example, a Kaplan-Meier analysis may be calculated using the following formula: […]
substance,measurement,value
"p524opt: p524 sequence adjusted to a pI of 8.59 (SEQ ID NO. 2), synthetic peptide given with IFA (DSRLSKVAPVIKARMMED)",protection from the onset of diabetes (in words),no protective effect

# From US12527849B2, “Apparatus for determining administration form of a composition of an engineered virus-based nanoparticle for a treatment of an autoimmune condition” (Diamante Srl, priority 2021, dated 2026)
